Experiments:
Format in all cases: biochemical
[1] = system: epoxide hydrolase from Agrobacterium radiobacter AD1, wild type, SEQ ID No. 1; test: Stereoselective hydrolysis (kinetic resolution) of styrene oxides, comparative experiment with wild type enzyme; details: substrate 5 mM, Tris buffer 50 mM pH9, 30°C, 10% DMSO for meta- and para-chlorostyrene oxide, chiral GLC
Experimental: (§1) A screw-cap bottle containing 30 ml Tris buffer^1 (50 mM pH9) was incubated in a shaking waterbath at 30°C. Styrene oxides (SO) as indicated in table 3 were added to a final concentration of 5 mM. The reaction was started by the addition of the a purified enzyme solution of the Tyr215Phe mutant of the epoxide hydrolase from Agrobacterium radiobacter AD1. The kinetic resolution was monitored by periodically taking 1 ml samples (with a 1 ml syringe) from the closed screw-cap bottle. The samples were extracted with diethylether containing 20 mM mesitylene as an internal standard. Prior to analysis by chiral GLC the water was removed from the sample by passing it through a short column containing MgSO4. The enantiomeric excess (%ee) and the yield of the epoxides was determined with a Hewlett-Packard 5890 gas chromatograph equipped with a FID-detector, using a Chiraldex G-TA capillary column, of 50 m lenght and 0.25 mm inside diameter. The data from the chiral GLC are as follows: • styrene oxide, tr(S)=12.4 min and tr(R)=14.8 min at 110°C; • meta-chlorostyrene oxide, tr(S)=20.2 min and tr(R)= 31.1 min at 120°C; • para-chlorostyrene oxide, tr(S)=40.7 min and tr(R)= 43.0 min at 100°C. ^1 In case of meta-chlorostyrene oxide and para-chlorostyrene oxide the buffer also contained 10% DMSO
Example III was repeated using the corresponding wild type epoxide hydrolase for Agrobacterium radiobacter AD1.

[2] = system: epoxide hydrolase from Agrobacterium radiobacter AD1, Tyr215Phe mutant; test: Stereoselective hydrolysis (kinetic resolution) of styrene oxides with Tyr215Phe mutant; details: substrate 5 mM, Tris buffer 50 mM pH9, 30°C, 10% DMSO for meta- and para-chlorostyrene oxide, chiral GLC
Experimental: Site directed mutagenesis was done as described by Kunkel (Proc. Natl. Acad. Sci. U.S.A., 82, 488-492 (1985)) with uracil-containing single stranded plasmid pEH20 as template (Rink et al.). Tyr^215 was mutated to Phe with the primer 5'-[…]-3' (mutated codon underlined). In order to confirm the mutation, the whole gene was sequenced as described in Rink et al.
as §1

[3] = system: epoxide hydrolase from Agrobacterium radiobacter AD1, Tyr152Phe mutant; test: Stereoselective hydrolysis (kinetic resolution) of racemic styrene oxide with Tyr152Phe mutant; details: as Example III (5 mM, Tris buffer 50 mM pH9, 30°C)

Row | Compound | E-value [1] | E-value [2] | E-value [3]
1 | O=[N+]([O-])c1ccc(C2CO2)cc1 (racemic) [P-NO2-SO] | 100 | > 200 | 
2 | c1ccc(C2CO2)cc1 (racemic) [SO, styrene oxide] | 16 | 30 | ≥ 40
3 | Clc1cccc(C2CO2)c1 (stereo not drawn) [M-Cl-SO, meta-chlorostyrene oxide] | 6.5 | 13 | 
4 | Clc1ccc(C2CO2)cc1 (stereo not drawn) [P-Cl-SO, para-chlorostyrene oxide] | 32 | 130 | 

— patent publication EP1013768A1, “Mutant epoxide hydrolases” (priority 1998, dated 2000)
